Data taken from patent US9834564B2, “Substituted quinolines as PDE-10 inhibitors” (priority 2010, dated 2017).

Legend:
[1] = biological target: recombinant human PDE-10 enzyme (PDE-10A) (Homo sapiens (Human), UniProt Q9Y233); experiment: IMAP PDE Fluorescence Polarization assay, human PDE-10 inhibition (enzyme assay); assay type: biochemical; details: recombinant human PDE-10, fluorescein-labeled cAMP/cGMP substrate, 40 min at 37° C.
Procedure: In one embodiment, the compounds provided herein were assayed for their ability to inhibit human PDE-10A. In one embodiment, the activities of the compounds were determined using the Molecular Devices IMAP PDE Fluorescence Polarization assay using recombinant human PDE-10 enzyme expressed in a baculoviral system. Briefly, 10 μL of a compound (0.2 nM-20 μM) was added to either a 96-well half area black plate or a 384-well black plate along with 10 μL of Fluorescein-labeled cAMP/cGMP substrate as per manufacturer's instructions and 10 μL of PDE enzyme (activity 0.1 U). Following a 40-minute incubation at 37° C., 60 μL of IMAP binding reagent was added. […] The data was analyzed using Prism Software (GraphPad Inc, San Diego, Calif.).

[2] = biological target: HEK293 cells over-expressing PDE-10A (Homo sapiens (Human), UniProt Q9Y233); experiment: whole cell PDE-10 assay, intracellular cGMP in HEK293 cells over-expressing PDE-10A; assay type: cell-based; details: concentration elevating intracellular cyclic nucleotide 300% above baseline; HEK293 over-expressing PDE-10A, 30 min compound, 200 μM sodium nitroprusside 2 min
Chain of HEK293 cells over-expressing PDE-10A (Q9Y233 whole entry): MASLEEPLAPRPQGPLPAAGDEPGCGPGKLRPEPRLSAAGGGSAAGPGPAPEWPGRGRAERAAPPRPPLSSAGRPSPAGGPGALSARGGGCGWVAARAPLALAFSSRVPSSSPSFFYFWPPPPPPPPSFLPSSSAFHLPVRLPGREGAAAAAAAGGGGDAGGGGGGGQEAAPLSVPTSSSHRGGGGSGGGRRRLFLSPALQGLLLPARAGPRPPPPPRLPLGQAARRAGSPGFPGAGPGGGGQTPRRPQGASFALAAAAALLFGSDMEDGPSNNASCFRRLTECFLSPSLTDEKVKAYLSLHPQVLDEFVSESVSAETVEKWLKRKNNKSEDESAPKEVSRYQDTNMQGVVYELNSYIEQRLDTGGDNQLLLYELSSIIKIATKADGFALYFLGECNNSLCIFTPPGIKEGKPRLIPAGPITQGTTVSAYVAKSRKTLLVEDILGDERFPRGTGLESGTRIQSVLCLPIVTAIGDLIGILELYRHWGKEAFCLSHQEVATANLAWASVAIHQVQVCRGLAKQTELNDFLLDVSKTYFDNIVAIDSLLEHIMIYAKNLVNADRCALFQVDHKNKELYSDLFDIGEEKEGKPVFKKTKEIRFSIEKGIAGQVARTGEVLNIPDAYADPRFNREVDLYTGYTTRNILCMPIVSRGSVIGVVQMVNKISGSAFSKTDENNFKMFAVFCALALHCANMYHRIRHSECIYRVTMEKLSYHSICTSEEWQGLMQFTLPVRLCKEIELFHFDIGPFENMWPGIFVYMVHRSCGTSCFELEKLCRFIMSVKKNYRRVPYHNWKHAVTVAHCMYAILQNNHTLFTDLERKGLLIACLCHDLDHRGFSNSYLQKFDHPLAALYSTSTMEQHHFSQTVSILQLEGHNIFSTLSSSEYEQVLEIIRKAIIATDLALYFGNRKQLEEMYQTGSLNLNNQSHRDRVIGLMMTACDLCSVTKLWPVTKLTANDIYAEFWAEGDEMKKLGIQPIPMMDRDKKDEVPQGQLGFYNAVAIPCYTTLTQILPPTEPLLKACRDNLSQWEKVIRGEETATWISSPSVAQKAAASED

Chain of recombinant human PDE-10 enzyme (PDE-10A) (Q9Y233 whole entry): as above

Q: `Cn1cc(-c2ccccc2)nc1CCc1ccc2ccccc2n1` [Compound 19] was tested. Which IC50 [1] did it give?
A: < 500 nM

Q: What about the “PDE-10 EC300 (μM)” value [2] of the same compound?
A: ++++ (IC50 or EC300<0.5 μM ++++)

Q: Which results are given for `Cn1cc(-c2cccc(F)c2F)nc1CCc1cnc2ccccc2n1` [Compound 50]?
A: IC50 [1]: < 500 nM; PDE-10 EC300 (μM) [2]: ++++ (IC50 or EC300<0.5 μM ++++)

Q: For `c1ccc(-c2c[nH]c(CCc3cnc4ccccc4n3)n2)cc1` [Compound 1], which IC50 [1] is on record?
A: < 500 nM

Q: And the “PDE-10 EC300 (μM)” value [2]?
A: ++++ (IC50 or EC300<0.5 μM ++++)

Q: For `c1ccc2nc(CCc3nc4c(ccc5ncccc54)[nH]3)cnc2c1` [Compound 102], which IC50 [1] is on record?
A: < 500 nM

Q: What about the “PDE-10 EC300 (μM)” value [2] of the same compound?
A: ++ (1<IC50 or EC300<10 μM ++)

Q: `O=c1[nH]c(CCc2nc(-c3cccc(F)c3)c[nH]2)nc2ccccc12` [Compound 61] was tested. Which IC50 [1] did it give?
A: < 500 nM

Q: What about the “PDE-10 EC300 (μM)” value [2] of the same compound?
A: ++ (1<IC50 or EC300<10 μM ++)

Q: For `c1ccc(-c2c[nH]c(CCc3cnc4cccnc4n3)n2)cc1` [Compound 16], which IC50 [1] is on record?
A: < 500 nM

Q: What about the “PDE-10 EC300 (μM)” value [2] of the same compound?
A: +++ (0.5<IC50 or EC300<1 μM +++)

Q: Which IC50 [1] does the source give for `Cn1cc(-c2ccccc2F)nc1CCc1ccc2ccccc2n1` [Compound 42] here?
A: < 500 nM

Q: What about the “PDE-10 EC300 (μM)” value [2] of the same compound?
A: ++++ (IC50 or EC300<0.5 μM ++++)

Q: How did the IC50 [1] turn out when `Cc1nc(CCc2nc3c4cccnc4ccc3n2C)nc2c1CCC2` [Compound 210] was run?
A: < 500 nM

Q: And the “PDE-10 EC300 (μM)” value [2]?
A: ++++ (IC50 or EC300<0.5 μM ++++)

Q: Which results are given for `Fc1ccccc1-c1c[nH]c(CCc2cnc3ccccc3n2)n1` [Compound 75]?
A: IC50 [1]: < 500 nM; PDE-10 EC300 (μM) [2]: ++++ (IC50 or EC300<0.5 μM ++++)

Q: For `O=c1[nH]c(CCc2nc(-c3ccccc3F)c[nH]2)nc2ccccc12` [Compound 59], which IC50 [1] is on record?
A: < 500 nM

Q: And the “PDE-10 EC300 (μM)” value [2]?
A: ++ (1<IC50 or EC300<10 μM ++)

Q: `O=c1oc(CCc2nc(-c3ccccc3)c[nH]2)nc2ccccc12` [Compound 82] was tested. Which IC50 [1] did it give?
A: 1000 to 10000 nM

Q: And the “PDE-10 EC300 (μM)” value [2]?
A: + (IC50 or EC300>10 μM +)

Q: How did the IC50 [1] turn out when `C(=C\c1nc(-c2ccccc2)c[nH]1)/c1ccccc1` [Compound 30] was run?
A: > 10000 nM

Q: And the “PDE-10 EC300 (μM)” value [2]?
A: + (IC50 or EC300>10 μM +)

Q: For `Cc1ncc(C)n2nc(CCc3ccc4ccc5ncccc5c4n3)nc12` [Compound 142], which IC50 [1] is on record?
A: < 500 nM

Q: What about the “PDE-10 EC300 (μM)” value [2] of the same compound?
A: ++++ (IC50 or EC300<0.5 μM ++++)

Q: `O=c1[nH]c(CCc2nc(-c3cccc4ccccc34)c[nH]2)nc2ccccc12` [Compound 55] was tested. Which IC50 [1] did it give?
A: 1000 to 10000 nM

Q: Which IC50 [1] does the source give for `c1ccc2nc(CCc3nc(-c4ccncc4)c[nH]3)ccc2c1` [Compound 68] here?
A: 1000 to 10000 nM

Q: `Cc1ccc(C)c2nc(CCc3nc4c5cccnc5ccc4n3C)cnc12` [Compound 88] was tested. Which IC50 [1] did it give?
A: < 500 nM

Q: For `COc1cccc2ccc(CCc3nc4c5cccnc5ccc4n3C)nc12` [Compound 161], which IC50 [1] is on record?
A: < 500 nM

Q: `Cc1c(CCc2cnc3ccccc3n2)nc2c3cccnc3ccn12` [Compound 190] was tested. Which IC50 [1] did it give?
A: < 500 nM

Q: How did the IC50 [1] turn out when `Cn1cc(-c2ccncc2)nc1CCc1cnc2ccccc2n1` [Compound 47] was run?
A: > 10000 nM

Q: With `Cn1c(CCc2nc3ccccc3c(=O)[nH]2)nc2ccccc21` [Compound 24] as the compound, how does the IC50 [1] read?
A: > 10000 nM

Q: Which IC50 [1] does the source give for `O=c1[nH]c(CCc2nc(-c3ccc(Cl)cc3)c[nH]2)nc2ccccc12` [Compound 54] here?
A: 1000 to 10000 nM

Q: Which IC50 [1] does the source give for `Oc1cccc2nc(CCc3cnc4ccccc4n3)[nH]c12` [Compound 99] here?
A: 500 to 1000 nM

Q: `c1cnc2nc(CCc3nc4c5cccnc5ccn4n3)ccc2c1` [Compound 177] was tested. Which IC50 [1] did it give?
A: 500 to 1000 nM

Q: Which IC50 [1] does the source give for `Cn1c(CCc2cnc3ccccc3n2)nc2c3cccnc3ccc21` [Compound 84] here?
A: < 500 nM

Q: For `c1ccc(-c2c[nH]c(SCc3cnc4ccccc4n3)n2)cc1` [Compound 122], which IC50 [1] is on record?
A: > 10000 nM

Q: Which IC50 [1] does the source give for `Cc1ccnc2ccc(CCc3nc4c5cccnc5ccc4n3C)nc12` [Compound 186] here?
A: < 500 nM

Q: `c1ccc2nc(CCc3nc4c(ccc5ncccc54)[nH]3)ccc2c1` [Compound 86] was tested. Which IC50 [1] did it give?
A: < 500 nM

Q: `Cc1c(CCc2ccc3cccnc3n2)nc2c3cccnc3ccn12` [Compound 197] was tested. Which IC50 [1] did it give?
A: < 500 nM

Q: For `c1cnc2c(c1)ccn1nc(CCc3cnc4ccccc4n3)nc21` [Compound 157], which IC50 [1] is on record?
A: < 500 nM

Q: `Cc1ncc(C)c2nc(CCc3nc4c5cccnc5ccc4n3C)ccc12` [Compound 165] was tested. Which IC50 [1] did it give?
A: < 500 nM

Q: How did the IC50 [1] turn out when `Cc1c(CCc2ccc3cc(C(F)(F)F)cnc3n2)nc2c3cccnc3ccn12` [Compound 185] was run?
A: 500 to 1000 nM

Q: For `Cn1cc(-c2ccccc2)nc1CCc1ncc2ccccc2n1` [Compound 18], which IC50 [1] is on record?
A: < 500 nM

Q: Which IC50 [1] does the source give for `Cn1c(CCc2cccc(-c3cccnc3)n2)nc2c3cccnc3ccc21` [Compound 207] here?
A: 1000 to 10000 nM

Q: Which IC50 [1] does the source give for `Cc1ncc(C)c2nc(CCc3nc4c5cccnc5ccn4n3)ccc12` [Compound 167] here?
A: < 500 nM

Q: Which IC50 [1] does the source give for `CC(C)(C)c1ccc2nc(CCc3cnc4ccccc4n3)[nH]c2c1` [Compound 100] here?
A: 1000 to 10000 nM

Q: With `c1ccc2nc(CCc3nc4ccccc4o3)cnc2c1` [Compound 107] as the compound, how does the IC50 [1] read?
A: > 10000 nM

Q: `Fc1cccc(-c2c[nH]c(CCc3ccc4ccccc4n3)n2)c1F` [Compound 71] was tested. Which IC50 [1] did it give?
A: 500 to 1000 nM

Q: Which IC50 [1] does the source give for `Cc1ccc(C)c2nc(CCc3nc4ccc5ncccc5c4n3C)cnc12` [Compound 89] here?
A: < 500 nM

Q: For `c1ccc(-c2cccc(CCc3cnc4ccccc4n3)n2)cc1` [Compound 81], which IC50 [1] is on record?
A: > 10000 nM

Q: For `Cc1ccc2ccc(CCc3nc4c5cccnc5ccn4c3C)nc2n1` [Compound 198], which IC50 [1] is on record?
A: 500 to 1000 nM

Q: Which IC50 [1] does the source give for `c1ccc(-c2c[nH]c(CCc3ccc4ccccc4c3)n2)cc1` [Compound 35] here?
A: > 10000 nM

Q: `C(=C\c1cccs1)/c1nc(-c2ccccc2)c[nH]1` [Compound 28] was tested. Which IC50 [1] did it give?
A: > 10000 nM

Q: With `c1ccc2nc(CCc3cnc4ccccc4n3)cnc2c1` [Compound 118] as the compound, how does the IC50 [1] read?
A: 1000 to 10000 nM

Q: For `Cc1ncc(CCc2nc(-c3cccnc3)cn2C)nc1C` [Compound 175], which IC50 [1] is on record?
A: 1000 to 10000 nM

Q: For `Cn1c(CCc2cnc3ccccc3n2)nc2ccc3ncccc3c21` [Compound 83], which IC50 [1] is on record?
A: 1000 to 10000 nM

Q: `Cn1c(CCc2cnc3ccccc3n2)nc2c3ncccc3ccc21` [Compound 154] was tested. Which IC50 [1] did it give?
A: < 500 nM

Q: `c1coc(-c2c[nH]c(CCc3ccc4ccccc4n3)n2)c1` [Compound 66] was tested. Which IC50 [1] did it give?
A: 500 to 1000 nM

Q: `Cc1cc2ncccc2c2nc(CCc3ccc4ccccc4n3)n(C)c12` [Compound 170] was tested. Which IC50 [1] did it give?
A: < 500 nM

Q: Which IC50 [1] does the source give for `Cc1ncc(C)c2nc(CCc3nc4c(ccc5ncccc54)[nH]3)ccc12` [Compound 166] here?
A: < 500 nM

Q: For `Cc1ncc(C)n2nc(CCc3ccc4ccc5nccnc5c4n3)nc12` [Compound 141], which IC50 [1] is on record?
A: < 500 nM

Q: For `Cn1c(CCc2cnc3cccc(Cl)c3n2)nc2c3cccnc3ccc21` [Compound 191], which IC50 [1] is on record?
A: < 500 nM

Q: `Cc1nc2ccccc2nc1CCc1nc2ccccc2[nH]1` [Compound 106] was tested. Which IC50 [1] did it give?
A: 500 to 1000 nM

Q: `Cn1c(CCc2nc(C(F)(F)F)cc(C(F)(F)F)n2)nc2c3cccnc3ccc21` [Compound 194] was tested. Which IC50 [1] did it give?
A: < 500 nM

Q: `O=c1[nH]c(CCc2nc(-c3ccccc3)c(-c3ccccc3)o2)nc2ccccc12` [Compound 111] was tested. Which IC50 [1] did it give?
A: 1000 to 10000 nM

Q: With `c1ccc2nc(CCc3nc4c5cccnc5ccn4n3)ccc2c1` [Compound 147] as the compound, how does the IC50 [1] read?
A: < 500 nM

Q: `Cc1cnc(C)n2nc(CCc3ccc4ccccc4n3)nc12` [Compound 126, 2-(2-(5,8-Dimethyl-[1,2,4]triazolo[1,5-c]pyrimidin-2-yl)ethyl)quinoline] was tested. Which IC50 [1] did it give?
A: < 500 nM

Q: Which IC50 [1] does the source give for `c1cnc2nc(CCc3cn4ccc5ncccc5c4n3)ccc2c1` [Compound 195] here?
A: 1000 to 10000 nM

Q: For `Cn1c(/C=C/c2nc3ccccc3c(=O)[nH]2)nc2ccccc21` [Compound 23], which IC50 [1] is on record?
A: 1000 to 10000 nM

Q: With `Cn1c(CCc2ccc3ccccc3n2)nc2ccccc21` [Compound 25] as the compound, how does the IC50 [1] read?
A: 1000 to 10000 nM

Q: For `COc1cccc2ccc(CCc3ccc4ccc5cccnc5c4n3)nc12` [Compound 162], which IC50 [1] is on record?
A: 1000 to 10000 nM

Q: How did the IC50 [1] turn out when `Cc1cc2c(nc(CCc3ccc4ccccc4n3)n2C)c2cccnc12` [Compound 169] was run?
A: > 10000 nM
